The values that follow come from patent publication US20250011318A1 (ARCUS BIOSCIENCES, INC., priority 2023, published 2025).

Molecules are shown by their SMILES.

For one test, the target named is T1, Cbl-b (Homo sapiens, UniProt Q13191).
T1 construct: biotin (biotinylated)
The test is described as follows: Cbl-b probe displacement HTRF binding assay. Particulars: 0.4 nM biotinylated Cbl-b, 150 nM BODIPY probe. The essentials: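 Biotinylated Cbl-b (0.4 nM) preincubated 60 min at RT with compound (20-point 1:2 series, 10 μM top), then 150 nM BODIPY probe for 15 min, then streptavidin-terbium detection. Buffer: 20 mM Hepes, 150 mM NaCl, 0.01% Triton X-100, 0.5 mM TCEP, 0.01% BSA. Loss of HTRF signal gave IC50 via four-parameter fit.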
(In TR-FRET formats the signal depends on donor and acceptor labels being close together.)

The next test deals with Jurkat cells. Briefly: IL-2 secretion assay in CD3/CD28-activated Jurkat cells (AlphaLISA). The class given is cell-based, human. Particulars: CD3/CD28 T Cell Activator, 24 h, IL-2 AlphaLISA. The method in brief: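 Jurkat cells (50,000/well) preincubated 1 h at 37° C with compound (16-point 1:2 series, final 10 μM to 300 pM) in Opti-MEM, then stimulated with CD3/CD28 activator for 24 h. Supernatant IL-2 read by AlphaLISA; EC50 from 4-parameter logistic fit.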
For orientation: Bead proximity is the source of the signal in Alpha formats.

T1 sequence (Q13191 whole entry, species assumed): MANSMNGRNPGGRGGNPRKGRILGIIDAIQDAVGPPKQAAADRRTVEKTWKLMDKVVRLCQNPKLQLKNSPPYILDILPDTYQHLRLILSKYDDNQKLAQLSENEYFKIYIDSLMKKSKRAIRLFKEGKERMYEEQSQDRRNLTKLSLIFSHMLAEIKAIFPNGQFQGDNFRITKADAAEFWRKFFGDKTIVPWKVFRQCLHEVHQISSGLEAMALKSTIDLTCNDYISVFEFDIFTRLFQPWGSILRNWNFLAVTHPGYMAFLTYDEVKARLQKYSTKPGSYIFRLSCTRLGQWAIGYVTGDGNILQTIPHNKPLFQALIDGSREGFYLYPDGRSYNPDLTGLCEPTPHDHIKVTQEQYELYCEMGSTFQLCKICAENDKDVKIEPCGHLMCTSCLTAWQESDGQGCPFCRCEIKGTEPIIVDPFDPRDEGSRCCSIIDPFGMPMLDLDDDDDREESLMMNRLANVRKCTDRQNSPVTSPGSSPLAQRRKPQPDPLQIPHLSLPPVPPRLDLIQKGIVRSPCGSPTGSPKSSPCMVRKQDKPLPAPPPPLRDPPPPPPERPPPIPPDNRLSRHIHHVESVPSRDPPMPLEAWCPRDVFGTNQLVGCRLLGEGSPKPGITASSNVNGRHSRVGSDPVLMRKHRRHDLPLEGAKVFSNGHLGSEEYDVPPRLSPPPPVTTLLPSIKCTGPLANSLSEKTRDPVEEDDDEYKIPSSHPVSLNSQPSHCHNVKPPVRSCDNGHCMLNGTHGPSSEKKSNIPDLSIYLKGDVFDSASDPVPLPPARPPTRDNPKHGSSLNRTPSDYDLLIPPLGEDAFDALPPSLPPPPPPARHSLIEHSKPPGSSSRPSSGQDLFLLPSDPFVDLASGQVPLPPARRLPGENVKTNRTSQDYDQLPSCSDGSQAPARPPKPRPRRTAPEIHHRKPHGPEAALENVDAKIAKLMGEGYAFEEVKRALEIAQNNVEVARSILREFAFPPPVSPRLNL

Regarding `COC1CN(Cc2cc3ncn(-c4cc(-c5ccc(F)cc5-c5nc(C#N)cn5C)cc(C5CC5)n4)c(=O)c3[nH]2)C1` [Example 109, 2-[2-(6-cyclopropyl-2-{2-[(3-methoxy-1-azetidinyl)methyl]-7-oxo-1,6-dihydro-1,4,6-triaza-6-indenyl}-4-pyridyl)-5-fluorophenyl]-1-methyl-4-imidazolecarbonitrile], the 50% inhibitory concentration (IC50) (in general, the concentration needed to halve the response being measured) at Cbl-b is less than 100 nM. The EC50 (usually the concentration at which the effect is half-maximal) in the test on Jurkat cells (Homo sapiens) lay in the range of 100 to 1000 nM.
The matching figures for `COCCNCc1cc2c(C3CC3)cn(-c3cc(-c4ccc(F)cc4-c4nc(C#N)cn4C)cc(C4CC4)n3)c(=O)c2[nH]1` [Example 110, 2-[2-[2-cyclopropyl-6-[4-cyclopropyl-2-[(2-methoxyethylamino)methyl]-7-oxo-1H-pyrrolo[2,3-c]pyridin-6-yl]pyridin-4-yl]-5-fluorophenyl]-1-methylimidazole-4-carbonitrile]: less than 100 nM and less than 100 nM.
The corresponding values for `COC[C@H](C)NCc1cc2ncn(-c3cc(-c4ccc(F)cc4-c4nc(C#N)cn4C)cc(C4CC4)n3)c(=O)c2[nH]1` [Example 111, 2-[2-[2-cyclopropyl-6-[6-[[[(2S)-1-methoxypropan-2-yl]amino]methyl]-4-oxo-5H-pyrrolo[3,2-d]pyrimidin-3-yl]pyridin-4-yl]-5-fluorophenyl]-1-methylimidazole-4-carbonitrile] are less than 100 nM and less than 100 nM.
The matching figures for `Cn1cc(C#N)nc1-c1cc(F)ccc1-c1cc(C2CC2)nc(-n2cnc3cc(CNCCC(F)(F)F)[nH]c3c2=O)c1` [Example 112, 2-[2-[2-cyclopropyl-6-[4-oxo-6-[(3,3,3-trifluoropropylamino)methyl]-5H-pyrrolo[3,2-d]pyrimidin-3-yl]pyridin-4-yl]-5-fluorophenyl]-1-methylimidazole-4-carbonitrile]: less than 100 nM and less than 100 nM.
For `Cn1cc(C#N)nc1-c1cc(C#N)ccc1-c1cc(C2CC2)nc(-n2cnc3cc(CNC4(C)CCC4)[nH]c3c2=O)c1` [Example 115, 2-[5-cyano-2-[2-cyclopropyl-6-[6-[[(1-methylcyclobutyl)amino]methyl]-4-oxo-5H-pyrrolo[3,2-d]pyrimidin-3-yl]pyridin-4-yl]phenyl]-1-methylimidazole-4-carbonitrile], the 50% inhibitory concentration (IC50) on Cbl-b was less than 100 nM. This molecule gave an EC50 with Jurkat cells (Homo sapiens) of less than 100 nM.
At Cbl-b, `COCCNCc1cc2ncn(-c3cc(-c4ccc(C#N)cc4-c4nc(C#N)cn4C)cc(C4CC4)n3)c(=O)c2[nH]1` [Example 116, 2-[5-cyano-2-[2-cyclopropyl-6-[6-[(2-methoxyethylamino)methyl]-4-oxo-5H-pyrrolo[3,2-d]pyrimidin-3-yl]pyridin-4-yl]phenyl]-1-methylimidazole-4-carbonitrilef] showed an IC50 of less than 100 nM. In addition, the concentration giving a half-maximal response (EC50) in the test on Jurkat cells (Homo sapiens) was less than 100 nM.
For the molecule `C[C@H]1CCCN(Cc2cc3c(C4CC4)cn(-c4cc(-c5ccc(C#N)cc5-c5nc(C(F)(F)F)cn5C)cc(C5CC5)n4)c(=O)c3[nH]2)C1` [Example 117, 4-[2-(2-{[(S)-3-methyl-1-piperidyl]methyl}-4-cyclopropyl-7-oxo-1,6-dihydro-1,6-diaza-6-indenyl)-6-cyclopropyl-4-pyridyl]-3-[1-methyl-4-(trifluoromethyl)-2-imidazolyl]benzonitrile], the IC50 at Cbl-b was less than 100 nM. The concentration for a half-maximal effect (EC50) with Jurkat cells (Homo sapiens) lay in the range of 100 to 1000 nM.
The matching figures for `COCCNCc1cc2ncn(-c3cc(-c4ccc(F)cc4-c4ncnn4C)cc(C4CC4)n3)c(=O)c2[nH]1` [Example 118, 3-[6-cyclopropyl-4-[4-fluoro-2-(2-methyl-1,2,4-triazol-3-yl)phenyl]-pyridin-2-yl]-6-[(2-methoxyethylamino)methyl]-5H-pyrrolo[3,2-d]pyrimidin-4-one]: less than 100 nM and 100 to 1000 nM.
`C[C@H]1CCCN(Cc2cc3c(C4CC4)cn(-c4cc(-c5ccc(F)cc5-c5ncnn5C)cc(C5CC5)n4)c(=O)c3[nH]2)C1` [Example 119, 4-Cyclopropyl-6-[6-cyclopropyl-4-[4-fluoro-2-(2-methyl-1,2,4-triazol-3-yl)phenyl]pyridin-2-yl]-2-[[(3S)-3-methylpiperidin-1-yl]methyl]-1H-pyrrolo[2,3-c]pyridin-7-one] yielded an IC50 on Cbl-b of less than 100 nM. In addition, in the test with Jurkat cells (Homo sapiens), the EC50 lay in the range of 100 to 1000 nM.
As to `Cn1ncnc1-c1cc(F)ccc1-c1cc(C2CC2)nc(-n2cnc3cc(CNC4(C)CCC4)[nH]c3c2=O)c1` [Example 120, 3-[6-cyclopropyl-4-[4-fluoro-2-(2-methyl-1,2,4-triazol-3-yl)phenyl]-pyridin-2-yl]-6-[[(1-methylcyclobutyl)amino]methyl]-5H-pyrrolo[3,2-d]pyrimidin-4-one], the concentration for half-maximal inhibition (IC50) at Cbl-b was less than 100 nM. The same molecule came in with a half-maximal effective concentration (EC50) in the test on Jurkat cells (Homo sapiens) of less than 100 nM.
The molecule `Cn1cnnc1-c1cc(F)ccc1-c1cc(C2CC2)nc(-n2cnc3cc(CC4CCCC4)[nH]c3c2=O)c1` [Example 121, 6-(cyclopentylmethyl)-3-[6-cyclopropyl-4-[4-fluoro-2-(4-methyl-1,2,4-triazol-3-yl)phenyl]pyridin-2-yl]-5H-pyrrolo[3,2-d]pyrimidin-4-one] displayed a 50% inhibitory concentration (IC50) at Cbl-b of less than 100 nM. In the test with Jurkat cells (Homo sapiens), this molecule returned an EC50 of 100 to 1000 nM.
The matching figures for `Cn1cnnc1-c1cc(F)ccc1-c1cc(C2CC2)nc(-n2cnc3cc(CC4CCOCC4)[nH]c3c2=O)c1` [Example 122, 3-[6-cyclopropyl-4-[4-fluoro-2-(4-methyl-1,2,4-triazol-3-yl)phenyl]pyridin-2-yl]-6-(oxan-4-ylmethyl)-5H-pyrrolo[3,2-d]pyrimidin-4-one]: less than 100 nM and 100 to 1000 nM.
In turn, `Cn1cnnc1-c1cc(F)ccc1-c1cc(C2CC2)nc(-n2cnc3cc(CC4COC4)[nH]c3c2=O)c1` [Example 123, 3-[6-cyclopropyl-4-[4-fluoro-2-(4-methyl-1,2,4-triazol-3-yl)phenyl]pyridin-2-yl]-6-(oxetan-3-ylmethyl)-5H-pyrrolo[3,2-d]pyrimidin-4-one] showed an IC50 at Cbl-b of less than 100 nM. Also, in the test on Jurkat cells (Homo sapiens), the EC50 lay in the range of 100 to 1000 nM.
The corresponding values for `Cc1cc2ncn(-c3cc(-c4ccc(F)cc4-c4nncn4C)cc(C4CC4)n3)c(=O)c2[nH]1` [Example 124, 3-[6-cyclopropyl-4-[4-fluoro-2-(4-methyl-1,2,4-triazol-3-yl)phenyl]-pyridin-2-yl]-6-methyl-5H-pyrrolo[3,2-d]pyrimidin-4-one] are less than 100 nM and 100 to 1000 nM.
The corresponding values for `Cn1cnnc1-c1cc(F)ccc1-c1cc(C2CC2)nc(-n2cnc3cc(C4CCOC4)[nH]c3c2=O)c1` (centres unmarked) [Example 125, 3-[6-cyclopropyl-4-[4-fluoro-2-(4-methyl-1,2,4-triazol-3-yl)phenyl]-pyridin-2-yl]-6-(oxolan-3-yl)-5H-pyrrolo[3,2-d]pyrimidin-4-one] are less than 100 nM and 100 to 1000 nM.
`Cn1cnnc1-c1cc(F)ccc1-c1cc(C2CC2)nc(-n2cnc3cc(C(O)C4CCCC4)[nH]c3c2=O)c1` (centres unmarked) [Example 126, 6-[cyclopentyl(hydroxy)methyl]-3-[6-cyclopropyl-4-[4-fluoro-2-(4-methyl-1,2,4-triazol-3-yl)phenyl]pyridin-2-yl]-5H-pyrrolo[3,2-d]pyrimidin-4-one]: on Cbl-b, the IC50 is less than 100 nM. The same molecule gave a concentration giving a half-maximal response (EC50) in the test with Jurkat cells (Homo sapiens) of less than 100 nM.
`Cn1cnnc1-c1cc(F)ccc1-c1cc(C2CC2)nc(-n2cnc3cc(C(F)C4CCCC4)[nH]c3c2=O)c1` (centres unmarked) [Example 127, 6-[cyclopentyl(fluoro)methyl]-3-[6-cyclopropyl-4-[4-fluoro-2-(4-methyl-1,2,4-triazol-3-yl)phenyl]pyridin-2-yl]-5H-pyrrolo[3,2-d]pyrimidin-4-one] displayed an IC50 at Cbl-b of less than 100 nM. For the same molecule, the 50% effective concentration (EC50) in the test with Jurkat cells (Homo sapiens) was less than 100 nM.
In turn, `Cn1cnnc1-c1cc(F)ccc1-c1cc(C2CC2)nc(-n2cnc3cc(C(F)F)[nH]c3c2=O)c1` [Example 128, 3-[6-cyclopropyl-4-[4-fluoro-2-(4-methyl-1,2,4-triazol-3-yl)phenyl]-pyridin-2-yl]-6-(difluoromethyl)-5H-pyrrolo[3,2-d]pyrimidin-4-one] had a 50% inhibitory concentration (IC50) at Cbl-b of less than 100 nM. For the same molecule, the concentration giving a half-maximal response (EC50) in the test on Jurkat cells (Homo sapiens) fell in the range of 100 to 1000 nM.
For the molecule `COCNCC1=CC2C(N1)C(=O)N(c1cc(-c3ccc(F)cc3-n3nncc3C)cc(C3CC3)n1)CC2C(F)(F)F` (centres unmarked) [Example 130, 6-[6-cyclopropyl-4-[4-fluoro-2-(5-methyltriazol-1-yl)phenyl]pyridin-2-yl]-2-[(methoxymethylamino)methyl]-4-(trifluoromethyl)-3a,4,5,7a-tetrahydro-1H-pyrrolo[2,3-c]pyridin-7-one], the IC50 at Cbl-b is less than 100 nM. In the test with Jurkat cells, this molecule yielded an EC50 of less than 100 nM.
With `COCCNCc1cc2c(C(F)(F)F)cn(-c3cc(-c4ccc(F)cc4-n4cc(C)nn4)cc(C4CC4)n3)c(=O)c2[nH]1` [Example 131, 6-[6-cyclopropyl-4-[4-fluoro-2-(4-methyltriazol-1-yl)phenyl]pyridin-2-yl]-2-[(2-methoxyethylamino)methyl]-4-(trifluoromethyl)-1H-pyrrolo[2,3-c]pyridin-7-one], at Cbl-b, the half-inhibitory concentration (IC50) was less than 100 nM. This molecule gave an EC50 in the test on Jurkat cells (Homo sapiens) of less than 100 nM.
For `COCCNCc1cc2ncn(-c3cc(-c4ccc(F)cc4-n4nncc4C)cc(C4CC4)n3)c(=O)c2[nH]1` [Example 132], the IC50 at Cbl-b is less than 100 nM. Besides, the EC50 in the test with Jurkat cells (Homo sapiens) was less than 100 nM.
The molecule `Cc1cnnn1-c1cc(F)ccc1-c1cc(C2CC2)nc(-n2cc(C(F)(F)F)c3nc(C4CC4)[nH]c3c2=O)c1` [Example 133, 2-cyclopropyl-5-{6-cyclopropyl-4-[4-fluoro-2-(5-methyl-1H-1,2,3-triazol-1-yl)phenyl]-2-pyridyl}-7-(trifluoromethyl)-3,5-dihydro-1,3,5-triaza-4-indenone] showed a concentration for half-maximal inhibition (IC50) on Cbl-b of less than 100 nM. In the test on Jurkat cells (Homo sapiens), this molecule returned an EC50 of 100 to 1000 nM.
